Measurements: ChEMBL document CHEMBL2434921, “New synthetic aliphatic sulfonamido-quaternary ammonium salts as anticancer chemotherapeutic agents” (2013)
Activity calls are given as the source filed them. The rule behind the calls is not given here.

Tests used:
MDA-MB-231 [1] = test: Growth of human MDA-MB-231 cells at 10 uM after 48 hrs by SRB assay; conditions: MDA-MB-231, 48 h
ACHN [2] = test: Growth inhibition of human ACHN cells after 48 hrs by SRB assay; format: functional
NCI-H23 [3] = test: Growth inhibition of human NCI-H23 cells at 0.1 uM after 48 hrs by SRB assay; values are per cent of control; conditions: NCI-H23, 48 h
HCT-15 [4] = test: Growth inhibition of human HCT15 cells after 48 hrs by SRB assay; format: functional; conditions: HCT-15, 48 h
NCI-H23 [5] = test: Growth inhibition of human NCI-H23 cells at 1 uM after 48 hrs by SRB assay; values are per cent of control; conditions: NCI-H23, 48 h
ACHN [6] = test: Growth of human ACHN cells at 0.3 uM after 48 hrs by SRB assay
NUGC-3 [7] = test: Growth inhibition of human NUGC3 cells at 10 uM after 48 hrs by SRB assay; values are per cent of control; conditions: NUGC-3, 48 h
MDA-MB-231 [8] = test: Growth of human MDA-MB-231 cells at 3 uM after 48 hrs by SRB assay; values are per cent of control; conditions: MDA-MB-231, 48 h
ACHN [9] = test: Growth inhibition of human ACHN cells at 3 uM after 48 hrs by SRB assay; values are per cent of control
PC-3 [10] = test: Growth inhibition of human PC3 cells at 0.1 uM after 48 hrs by SRB assay; values are per cent of control; conditions: PC-3, 48 h
MDA-MB-231 [11] = test: Growth of human MDA-MB-231 cells at 0.1 uM after 48 hrs by SRB assay; conditions: MDA-MB-231, 48 h
HCT-15 [12] = test: Growth inhibition of human HCT15 cells at 1 uM after 48 hrs by SRB assay; values are per cent of control; conditions: HCT-15, 48 h
[13] = target: Rho-related GTP-binding protein RhoB (Homo sapiens) (UniProt P62745); test: Transactivation of RhoB (unknown origin) transfected in human HeLa cells at 5 uM measured over 10 secs by dual luciferase reporter gene assay; format: cell-based
MDA-MB-231 [14] = test: Growth inhibition of human MDA-MB-231 cells after 48 hrs by SRB assay; format: functional; conditions: MDA-MB-231, 48 h
NCI-H23 [15] = test: Growth inhibition of human NCI-H23 cells after 48 hrs by SRB assay; format: functional; conditions: NCI-H23, 48 h
HCT-15 [16] = test: Growth inhibition of human HCT15 cells at 0.1 uM after 48 hrs by SRB assay; values are per cent of control; conditions: HCT-15, 48 h
PC-3 [17] = test: Growth inhibition of human PC3 cells at 1 uM after 48 hrs by SRB assay; values are per cent of control; conditions: PC-3, 48 h
NCI-H23 [18] = test: Growth of human NCI-H23 cells at 10 uM after 48 hrs by SRB assay; conditions: NCI-H23, 48 h
HCT-15 [19] = test: Growth of human HCT15 cells at 3 uM after 48 hrs by SRB assay; conditions: HCT-15, 48 h
PC-3 [20] = test: Growth of human PC3 cells at 10 uM after 48 hrs by SRB assay; conditions: PC-3, 48 h
NUGC-3 [21] = test: Growth inhibition of human NUGC3 cells at 3 uM after 48 hrs by SRB assay; values are per cent of control; conditions: NUGC-3, 48 h
ACHN [22] = test: Growth inhibition of human ACHN cells at 1 uM after 48 hrs by SRB assay; values are per cent of control
NUGC-3 [23] = test: Growth inhibition of human NUGC3 cells after 48 hrs by SRB assay; format: functional; conditions: NUGC-3, 48 h
MDA-MB-231 [24] = test: Growth of human MDA-MB-231 cells at 1 uM after 48 hrs by SRB assay; conditions: MDA-MB-231, 48 h
NUGC-3 [25] = test: Growth of human NUGC3 cells at 0.3 uM after 48 hrs by SRB assay; conditions: NUGC-3, 48 h
HCT-15 [26] = test: Growth of human HCT15 cells at 0.3 uM after 48 hrs by SRB assay; conditions: HCT-15, 48 h
PC-3 [27] = test: Growth inhibition of human PC3 cells at 3 uM after 48 hrs by SRB assay; values are per cent of control; conditions: PC-3, 48 h
PC-3 [28] = test: Growth inhibition of human PC3 cells at 0.3 uM after 48 hrs by SRB assay; values are per cent of control; conditions: PC-3, 48 h
MDA-MB-231 [29] = test: Growth inhibition of human MDA-MB-231 cells at 0.3 uM after 48 hrs by SRB assay; values are per cent of control; conditions: MDA-MB-231, 48 h
ACHN [30] = test: Growth of human ACHN cells at 10 uM after 48 hrs by SRB assay
PC-3 [31] = test: Growth inhibition of human PC3 cells after 48 hrs by SRB assay; format: functional; conditions: PC-3, 48 h
NUGC-3 [32] = test: Growth of human NUGC3 cells at 1 uM after 48 hrs by SRB assay; conditions: NUGC-3, 48 h
ACHN [33] = test: Growth of human ACHN cells at 0.1 uM after 48 hrs by SRB assay
HCT-15 [34] = test: Growth inhibition of human HCT15 cells at 10 uM after 48 hrs by SRB assay; values are per cent of control; conditions: HCT-15, 48 h
NCI-H23 [35] = test: Growth of human NCI-H23 cells at 0.3 uM after 48 hrs by SRB assay; conditions: NCI-H23, 48 h
NCI-H23 [36] = test: Growth inhibition of human NCI-H23 cells at 3 uM after 48 hrs by SRB assay; values are per cent of control; conditions: NCI-H23, 48 h
NUGC-3 [37] = test: Growth of human NUGC3 cells at 0.1 uM after 48 hrs by SRB assay; conditions: NUGC-3, 48 h

Chain of Rho-related GTP-binding protein RhoB (Homo sapiens) (P62745 whole entry): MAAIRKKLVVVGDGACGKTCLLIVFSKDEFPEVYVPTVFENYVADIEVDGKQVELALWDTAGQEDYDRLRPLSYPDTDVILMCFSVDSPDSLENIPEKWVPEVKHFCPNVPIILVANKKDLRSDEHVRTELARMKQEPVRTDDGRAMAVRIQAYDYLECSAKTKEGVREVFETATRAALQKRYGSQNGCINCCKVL

Compound: CCCCCCCCCCCCCCCCS(=O)(=O)N(C)CC[N+](C)(C)C
- growth, % of control at 10 µM (MDA-MB-231 [1]): 8%
- GI50 (ACHN [2]): 1600 nM
- growth, % of control at 0.1 µM (NCI-H23 [3]): 103%
- GI50 (HCT-15 [4]): 700 nM
- growth, % of control at 1 µM (NCI-H23 [5]): 80.3%
- growth, % of control at 0.3 µM (ACHN [6]): 90.3%
- growth, % of control at 10 µM (NUGC-3 [7]): 2.7%
- growth, % of control at 3 µM (MDA-MB-231 [8]): 32.7%
- growth, % of control at 3 µM (ACHN [9]): 51.4%
- growth, % of control at 0.1 µM (PC-3 [10]): 99.4%
- growth, % of control at 0.1 µM (MDA-MB-231 [11]): 98.2%
- growth, % of control at 1 µM (HCT-15 [12]): 55.3%
- Activity [13]: Active
- GI50 (MDA-MB-231 [14]): 930 nM
- GI50 (NCI-H23 [15]): 1290 nM
- growth, % of control at 0.1 µM (HCT-15 [16]): 95.7%
- growth, % of control at 1 µM (PC-3 [17]): 56.8%
- growth, % of control at 10 µM (NCI-H23 [18]): 6.8%
- growth, % of control at 3 µM (HCT-15 [19]): 22.4%
- growth, % of control at 10 µM (PC-3 [20]): -3.1%
- growth, % of control at 3 µM (NUGC-3 [21]): 14.4%
- growth, % of control at 1 µM (ACHN [22]): 69.7%
- GI50 (NUGC-3 [23]): 330 nM
- growth, % of control at 1 µM (MDA-MB-231 [24]): 66.8%
- growth, % of control at 0.3 µM (NUGC-3 [25]): 74.1%
- growth, % of control at 0.3 µM (HCT-15 [26]): 91.4%
- growth, % of control at 3 µM (PC-3 [27]): 17.6%
- growth, % of control at 0.3 µM (PC-3 [28]): 90.3%
- growth, % of control at 0.3 µM (MDA-MB-231 [29]): 95.7%
- growth, % of control at 10 µM (ACHN [30]): 25.5%
- GI50 (PC-3 [31]): 620 nM
- growth, % of control at 1 µM (NUGC-3 [32]): 32.2%
- growth, % of control at 0.1 µM (ACHN [33]): 99.4%
- growth, % of control at 10 µM (HCT-15 [34]): 19.5%
- growth, % of control at 0.3 µM (NCI-H23 [35]): 101%
- growth, % of control at 3 µM (NCI-H23 [36]): 41.8%
- growth, % of control at 0.1 µM (NUGC-3 [37]): 89.4%
